# In US20240376090A1, “ISOXAZOLE DERIVATIVES AS MODULATORS OF THE 5-HT2A SEROTONIN RECEPTOR USEFUL FOR THE TREATMENT OF DISORDERED RELATED THERETO” (Arena Pharmaceuticals, Inc., priority 2020, published 2024):
# What was measured:
# [1] = target: 5-HT2C receptor (Homo sapiens (Human), UniProt P28335); assay: HTRF IP-One antagonist assay, 5-HT2C; assay type: cell-based; conditions: HEK293 cells stably expressing recombinant human receptor; IP accumulation with 80 nM 5-HT
# Protocol: (§1) HEK293 cells stably expressing 5-HT2 receptors were generated using standard procedures. Cells were dilution cloned and clonal cell lines stably expressing the receptors at low levels were selected for pharmacology studies. In radioligand binding studies using a variety of radiolabeled probes, receptor densities in the 2A, 2B and 2C cell lines were estimated to be 50-70, 150-200, and 10-20 fmol/mg, respectively.
# (§2) Inositol phosphate accumulation assays were performed using the HTRF IP-One assay system developed by Cisbio and generally followed the manufacturer's instructions. Briefly, HEK293 cells stably expressing recombinant human receptors were harvested and resuspended in phenol-red free OptiMEM (ThermoFisher), plated into 384-well assay plates (Perkin Elmer, ProxiPlate-Plus® Cat #6008280) at 10,000 cells/well in a volume of 10 μL/well, and incubated overnight at 37° C., 5% CO2. Test compounds were solubilized and serially diluted in DMSO, and then diluted into Assay Buffer (Tris HCl 20 mM, NaCl 150 mM, LiCl 40 mM, pargyline 25 μM, pH 8) containing 80 nM 5-HT. Test compounds were added to the cells (4 μL/well addition, maximal final assay concentration typically 10 μM) and plates, incubated for 2 hrs at 37° C./5% CO2 and then removed from the incubator and allowed to cool to room temperature for 30 minutes prior to addition of IP-One detection reagents. IP-One detection reagents (6 μL/well) were added and plates incubated for 1 hr at room temperature before reading on an HTRF compatible reader such as a Perkin Elmer EnVision® or BMG PheraStar®. Dose-response experiments utilized 10-point curves, typically starting at 10 μM, with 5-fold serial dilutions. Experiments were performed with triplicate data points and independent replicate experiments were performed to ensure data consistency.
# [2] = target: T1, 5-HT2A receptor (Homo sapiens (Human), UniProt P28223); assay: HTRF IP-One antagonist assay, 5-HT2A; assay type: cell-based; conditions: HEK293 cells stably expressing recombinant human receptor; IP accumulation with 80 nM 5-HT
# T1 sequence (P28223 whole entry): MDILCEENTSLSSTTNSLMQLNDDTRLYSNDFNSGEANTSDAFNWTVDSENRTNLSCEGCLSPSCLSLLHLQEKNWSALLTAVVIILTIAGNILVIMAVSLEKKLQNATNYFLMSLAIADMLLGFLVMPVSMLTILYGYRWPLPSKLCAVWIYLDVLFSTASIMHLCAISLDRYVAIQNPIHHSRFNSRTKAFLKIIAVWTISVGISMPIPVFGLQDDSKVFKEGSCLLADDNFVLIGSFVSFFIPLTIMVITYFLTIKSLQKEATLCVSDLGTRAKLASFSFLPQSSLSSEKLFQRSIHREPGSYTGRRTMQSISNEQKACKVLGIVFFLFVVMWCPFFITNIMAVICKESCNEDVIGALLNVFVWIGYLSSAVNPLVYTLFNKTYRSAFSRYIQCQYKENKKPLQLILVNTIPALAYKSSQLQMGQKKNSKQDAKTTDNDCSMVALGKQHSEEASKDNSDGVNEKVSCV
# Protocol: as §1, §2
# [3] = target: T1, 5-HT2A receptor; assay: Radioligand binding assay ([3H]5-HT competition), 5-HT2A; conditions: [3H]5-HT radioligand, membranes of HEK293 cells expressing recombinant 5-HT2A; Ki from IC50 by Cheng-Prusoff; read-out: 5-HT2A serotonin binding Ki value
# [4] = target: 5-HT2B receptor (Homo sapiens (Human), UniProt P41595); assay: HTRF IP-One antagonist assay, 5-HT2B; assay type: cell-based; conditions: HEK293 cells stably expressing recombinant human receptor; IP accumulation with 80 nM 5-HT
# Chain of 5-HT2B receptor (P41595 whole entry): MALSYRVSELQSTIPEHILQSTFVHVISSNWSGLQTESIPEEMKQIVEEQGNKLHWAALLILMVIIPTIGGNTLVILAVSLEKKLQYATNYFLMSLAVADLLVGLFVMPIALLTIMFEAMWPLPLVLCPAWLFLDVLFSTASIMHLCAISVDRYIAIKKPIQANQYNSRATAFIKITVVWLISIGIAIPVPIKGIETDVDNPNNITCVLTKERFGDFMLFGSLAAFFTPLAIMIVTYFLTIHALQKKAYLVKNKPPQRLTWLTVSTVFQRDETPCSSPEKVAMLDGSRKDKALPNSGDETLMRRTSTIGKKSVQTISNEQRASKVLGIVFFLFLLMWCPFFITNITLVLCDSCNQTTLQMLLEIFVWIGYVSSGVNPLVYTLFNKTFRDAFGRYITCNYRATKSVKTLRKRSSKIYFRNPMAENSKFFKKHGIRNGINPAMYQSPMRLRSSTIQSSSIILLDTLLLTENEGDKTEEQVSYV
# Protocol: as §1, §2
# Chain of 5-HT2C receptor (P28335 33-458): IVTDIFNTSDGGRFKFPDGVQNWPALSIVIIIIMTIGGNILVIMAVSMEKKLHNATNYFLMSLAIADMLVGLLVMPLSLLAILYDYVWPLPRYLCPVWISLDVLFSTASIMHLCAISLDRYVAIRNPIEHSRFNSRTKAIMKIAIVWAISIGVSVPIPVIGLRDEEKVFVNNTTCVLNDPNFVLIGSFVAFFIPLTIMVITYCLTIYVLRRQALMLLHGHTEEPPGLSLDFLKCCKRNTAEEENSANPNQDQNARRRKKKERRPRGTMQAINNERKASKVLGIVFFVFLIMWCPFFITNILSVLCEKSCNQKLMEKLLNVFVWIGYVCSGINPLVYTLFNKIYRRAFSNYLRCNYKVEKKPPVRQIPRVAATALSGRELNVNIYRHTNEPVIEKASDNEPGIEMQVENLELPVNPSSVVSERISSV
IC50 [1] [nM],IC50 [2] [nM],Ki [3] [nM],IC50 [4] [nM],Compound
≥ 100000,8.95,2.66,≥ 100000,"Cc1noc(C)c1-c1cc(NC(=O)C2(F)CC2)ccc1OCCN1CCCC1 [Compound 113, N-[3-(3,5-dimethylisoxazol-4-yl)-4-(2-pyrrolidin-1-ylethoxy)phenyl]-1-fluoro-cyclopropanecarboxamide]"
≥ 100000,8.69,2.6,≥ 100000,"Cc1noc(C)c1-c1cc(NC(=O)c2c(F)cnn2C)ccc1OCCN1CCCC1 [Compound 114, N-(3-(3,5-dimethylisoxazol-4-yl)-4-(2-(pyrrolidin-1-yl)ethoxy)phenyl)-4-fluoro-1-methyl-1H-pyrazole-5-carboxamide]"
≥ 100000,20.6,10.3,≥ 100000,"Cc1noc(C)c1-c1cc(NC(=O)C2(F)CC2)ccc1OCCN1CCC1 [Compound 117, N-[4-[2-(azetidin-1-yl)ethoxy]-3-(3,5-dimethylisoxazol-4-yl)phenyl]-1-fluoro-cyclopropanecarboxamide]"
≥ 100000,13,9.58,≥ 100000,"Cc1ncsc1C(=O)Nc1ccc(OCCN2CCC2)c(-c2c(C)noc2C)c1 [Compound 119, N-(4-(2-(azetidin-1-yl)ethoxy)-3-(3,5-dimethylisoxazol-4-yl)phenyl)-4-methylthiazole-5-carboxamide]"
,29.7,4.67,,"Cc1noc(C)c1-c1cc(NC(=O)c2ccc(F)cc2)ccc1OCCN1CCC1 [Compound 121, N-(4-(2-(azetidin-1-yl)ethoxy)-3-(3,5-dimethylisoxazol-4-yl)phenyl)-4-fluorobenzamide]"
,8.92,2.7,,"COc1cccc(C(=O)Nc2ccc(OCCN3CCC3)c(-c3c(C)noc3C)c2)c1 [Compound 122, N-(4-(2-(azetidin-1-yl)ethoxy)-3-(3,5-dimethylisoxazol-4-yl)phenyl)-3-methoxybenzamide]"
,38.2,4.5,≥ 100000,"Cc1noc(C)c1-c1cc(NC(=O)Cc2cccc(F)c2)ccc1OCCN1CCC1 [Compound 125, N-(4-(2-(azetidin-1-yl)ethoxy)-3-(3,5-dimethylisoxazol-4-yl)phenyl)-2-(3-fluorophenyl)acetamide]"
≥ 100000,49.7,9.47,≥ 100000,"Cc1noc(C)c1-c1cc(NC(=O)C2CC2)ccc1OCCN1CCC2(CCC(=O)O2)CC1 [Compound 141, N-(3-(3,5-dimethylisoxazol-4-yl)-4-(2-(2-oxo-1-oxa-8-azaspiro[4.5]decan-8-yl)ethoxy)phenyl)cyclopropanecarboxamide]"
≥ 100000,85.5,14.9,≥ 100000,"CO[C@H]1CCN(CCOc2ccc(NC(=O)C3CC3)cc2-c2c(C)noc2C)C1 [Compound 144, (S)—N-(3-(3,5-dimethylisoxazol-4-yl)-4-(2-(3-methoxypyrrolidin-1-yl)ethoxy)phenyl)cyclopropanecarboxamide]"
≥ 100000,15.7,5.08,≥ 100000,"Cc1noc(C)c1-c1cc(NC(=O)C2CC2)ccc1OCCN1CCC(O)CC1 [Compound 146, N-(3-(3,5-dimethylisoxazol-4-yl)-4-(2-(4-hydroxypiperidin-1-yl)ethoxy)phenyl)cyclopropanecarboxamide]"
≥ 100000,13,2.16,≥ 100000,"Cc1noc(C)c1-c1cc(NC(=O)C2CC2)ccc1OC[C@H]1CCCCN1 [Compound 169, N-[3-(3,5-dimethylisoxazol-4-yl)-4-[[(2R)-2-piperidyl]methoxy]phenyl]cyclopropanecarboxamide]"
,109,6.5,≥ 100000,"Cc1noc(C)c1-c1cc(NC(=O)C2CC2)ccc1OC1CNC1 [Compound 172, N-(4-(azetidin-3-yloxy)-3-(3,5-dimethylisoxazol-4-yl)phenyl)cyclopropanecarboxamide]"
≥ 100000,36.2,4.01,≥ 100000,"Cc1nscc1C(=O)Nc1ccc(OC[C@H]2CCCCN2)c(-c2c(C)noc2C)c1 [Compound 187, (R)—N-(3-(3,5-dimethylisoxazol-4-yl)-4-(piperidin-2-ylmethoxy)phenyl)-3-methylisothiazole-4-carboxamide]"
≥ 100000,24.9,3.92,≥ 100000,"Cc1noc(C)c1-c1cc(NC(=O)c2cccn2C)ccc1OC[C@H]1CCCCN1 [Compound 189, (R)—N-(3-(3,5-dimethylisoxazol-4-yl)-4-(piperidin-2-ylmethoxy)phenyl)-1-methyl-1H-pyrrole-2-carboxamide]"
≥ 100000,60.1,7.61,≥ 100000,"Cc1noc(C)c1-c1cc(NC(=O)[C@H]2C[C@H]2F)ccc1OC[C@H]1CCCCN1 [Compound 191, (1R,2R)—N-(3-(3,5-dimethylisoxazol-4-yl)-4-(((R)-piperidin-2-yl)methoxy)phenyl)-2-fluorocyclopropane-1-carboxamide]"
,31.1,4.91,≥ 100000,"Cc1noc(C)c1-c1cc(NC(=O)[C@@H]2C[C@@H]2F)ccc1OC[C@H]1CCCCN1 [Compound 192, (1S,2S)—N-(3-(3,5-dimethylisoxazol-4-yl)-4-(((R)-piperidin-2-yl)methoxy)phenyl)-2-fluorocyclopropane-1-carboxamide]"
≥ 100000,45,10.2,≥ 100000,"Cc1ncoc1C(=O)Nc1ccc(OC[C@H]2CCCCN2)c(-c2c(C)noc2C)c1 [Compound 196, (R)—N-(3-(3,5-dimethylisoxazol-4-yl)-4-(piperidin-2-ylmethoxy)phenyl)-4-methyloxazole-5-carboxamide]"
,5.19,1.21,≥ 100000,"Cc1noc(C)c1-c1cc(NC(=O)C2(F)CC2)ccc1OC[C@H]1CCCCN1 [Compound 217, (R)—N-(3-(3,5-dimethylisoxazol-4-yl)-4-(piperidin-2-ylmethoxy)phenyl)-1-fluorocyclopropane-1-carboxamide]"
≥ 100000,21.8,4.85,≥ 100000,"Cc1noc(C)c1-c1cc(NC(=O)c2ccccc2)ccc1OC[C@H]1CCCCN1 [Compound 218, (R)—N-(3-(3,5-dimethylisoxazol-4-yl)-4-(piperidin-2-ylmethoxy)phenyl)benzamide]"
,19.7,3.18,≥ 100000,"Cc1ncsc1CC(=O)Nc1ccc(OC[C@H]2CCCCN2)c(-c2c(C)noc2C)c1 [Compound 225, (R)—N-(3-(3,5-dimethylisoxazol-4-yl)-4-(piperidin-2-ylmethoxy)phenyl)-2-(4-methylthiazol-5-yl)acetamide]"
,6.17,6.17,≥ 100000,"Cc1noc(C)c1-c1cc(NC(=O)c2c(F)cnn2C)ccc1OC[C@H]1CCCCN1 [Compound 230, (R)—N-(3-(3,5-dimethylisoxazol-4-yl)-4-(piperidin-2-ylmethoxy)phenyl)-4-fluoro-1-methyl-1H-pyrazole-5-carboxamide]"
,,59.4,,"Cc1noc(C)c1-c1cc(NC(=O)C2(F)CC2)ccc1O[C@H]1CCNC1 [Compound 239, (S)—N-(3-(3,5-dimethylisoxazol-4-yl)-4-(pyrrolidin-3-yloxy)phenyl)-1-fluorocyclopropane-1-carboxamide]"

Compound,IC50 [1] [nM],IC50 [2] [nM],Ki [3] [nM],IC50 [4] [nM]
"COCCNCCOc1ccc(NC(=O)C2CC2)cc1-c1c(C)noc1C [Compound 197, N-[3-(3,5-dimethylisoxazol-4-yl)-4-[2-(2-methoxyethylamino)ethoxy]phenyl]cyclopropanecarboxamide]",≥ 100000,4.95,1.08,≥ 100000
"CC(=N)NCCOc1ccc(NC(=O)C2CC2)cc1-c1c(C)noc1C [Compound 198, N-(4-(2-acetimidamidoethoxy)-3-(3,5-dimethylisoxazol-4-yl)phenyl)cyclopropanecarboxamide]",3730,22.8,5.39,≥ 100000
"COCCNCCOc1ccc(NC(=O)C2(F)CC2)cc1-c1c(C)noc1C [Compound 237, N-[3-(3,5-dimethylisoxazol-4-yl)-4-[2-(2-methoxyethylamino)ethoxy]phenyl]-1-fluoro-cyclopropanecarboxamide]",,,1.14,
"N-(4-(2-(azetidin-1-yl)ethoxy)-3-(3,5-dimethylisoxazol-4-yl)phenyl)-2-(5-fluoropyridin-2-yl)acetamide [Compound 129]",,,182,
